{"source": "paper PMC7876106", "about": "(Scientific Reports, 2021)", "format_in_all_cases": "binding", "key": {"[1]": {"system": "antisense TERRA", "assay": "FP assay, full-length TRF2 protein with FAM labeled antisense TERRA", "conditions": "FAM labeled oligo"}, "[2]": {"system": "antisense TeloDNA", "assay": "FP assay, full-length TRF2 protein with FAM labeled antisense TeloDNA", "conditions": "FAM labeled oligo"}, "[3]": {"system": "TeloDNA", "assay": "FP assay, FITC labeled TRF2 peptide with TeloDNA", "conditions": "10 nM FITC peptide, read-out: EC50 (affinity), peptide binding to TeloDNA", "method": "(§1) All the nucleic acids, peptides and chemicals were dissolved in buffer containing 20 mM HEPES pH7.5, 150 mM salt (KCl, NaCl, LiCl) at the stock concentration of 1 mM. For peptide and nucleic acid interactions, 25μL of each nucleic acids with a sequential twofold dilutions starting from 50 μM was added into each well of 96-well plate followed by adding 25μL of 10 nM FITC labeled TRF2 peptide. For compounds and nucleic acid interactions, 20μL of each compounds with a sequential twofold dilutions starting from 50 μM were added into each well of 96-well plate followed by adding 5μL of 20 ng/mL tRNA and 25μL of 10 nM FAM labeled nucleic acids. For inhibition assay, 5μL FITC labeled TRF2 GAR peptide (10 nM final concentration) and 10 μL oligos (5 μM final concentration) were mixed, followed by adding 5μL of each compound with a sequential twofold dilutions starting from 50 μM into each well of 384-well plate. All components were mixed thoroughly, and the plate was incubated at room temperature for 1 h before placing in an Envision Plate Reader for reading at 495/520 nm. All data curves were fitted using Prism 8.0."}, "[4]": {"system": "antisense TERRA", "assay": "FP assay, FITC labeled TRF2 peptide with antisense TERRA", "conditions": "10 nM FITC peptide", "method": "as §1"}, "[5]": {"system": "TERRA", "assay": "FP assay, FITC labeled TRF2 peptide with TERRA", "conditions": "10 nM FITC peptide, read-out: EC50 (affinity), peptide binding to TERRA", "method": "as §1"}, "[6]": {"system": "antisense TeloDNA", "assay": "FP assay, FITC labeled TRF2 peptide with antisense TeloDNA", "conditions": "10 nM FITC peptide", "method": "as §1"}}, "data": [{"substance": "full-length TRF2 protein: purified recombinant full-length TRF2 protein", "values": [{"measurement": "full-length TRF2 affinity for antisense TERRA", "setting": "[1]", "result": "lacks measurable affinity"}, {"measurement": "full-length TRF2 affinity for antisense TeloDNA", "setting": "[2]", "result": "lacks measurable affinity"}]}, {"substance": "RAAGRRASRSSGRARRGRHEPGLGGPAERGAGEAR [TRF2 GAR, 35-residue peptide containing the GAR domain of TRF2]", "values": [{"measurement": "EC50", "setting": "[3]", "result": 8.9, "unit": "µM"}, {"measurement": "peptide binding to antisense TERRA", "setting": "[4]", "result": "Neither TRF2 GAR nor the Ala mutant showed any detectable binding"}, {"measurement": "EC50", "setting": "[5]", "result": 2.7, "unit": "µM"}, {"measurement": "peptide binding to antisense TeloDNA", "setting": "[6]", "result": "Neither TRF2 GAR nor the Ala mutant showed any detectable binding"}]}]}
